# Experimental data as given in patent publication US6362195B1, “Branched alkoxy-substituted 2-aminopyridines as NOS inhibitors” (Pfizer Inc., priority 1997, dated 2002).
# Structures can show the parent of a compound that is named as a salt.
row,melting point [°C],SMILES
1,> 200,Nc1cccc(-c2ccc(CCN3CCN(CCc4ccccc4)CC3)cc2OC2CCCC2)n1 (as salt: hydrochloride)
2,148 to 165,CC(C)Oc1cc(C(O)CN2CCN(CCc3ccccc3)CC2)ccc1-c1cccc(N)n1 (centres unmarked) (as salt: hydrochloride)
